Where a SMILES comes first, the peptide text is derived from it.
What was measured:
Test in all cases: biochemical
Type in all cases: binding
HLA A*3201 = HLA A*3201 (Homo sapiens, UniProt P04439, A270S/D101S/D185E/E176V/E277Q/F133L/G103R/G107R/G231S/H175R/I121M/I218V/I322F/K168Q/L105A/L300P/L318F/M331R/P208A/P217A/Q94H/R106L/R138Q/S129P/T104I/T323A/T345S/V100E/V321M/V358M)
HLA A*3001 = HLA A*3001 (Homo sapiens, UniProt P04439, D140H/D185E/E176W/F33S/G80R/H175R/K168Q/R138E/R41S)
HLA B*1501 = HLA B*1501 (Homo sapiens, UniProt P01889, A329T/A93T/A95T/C349S/D201E/D98Y/E187L/E204Q/E69M/E70A/K202T/N87E/Q94N/R155S/R180W/S121R/S35A/S48A/V306I/V36M/Y140S/Y91S)
HLA B*1503 = HLA B*1503 (Homo sapiens, UniProt P01889, A329T/A93T/A95T/C349S/D201E/D98Y/E187L/E204Q/K202T/N87E/Q94N/R155S/R180L/S121R/S35A/V306I/V36M/Y140S/Y91S)

Chain of HLA A*3001 (P04439 25-365 limits assumed, stated change not applied): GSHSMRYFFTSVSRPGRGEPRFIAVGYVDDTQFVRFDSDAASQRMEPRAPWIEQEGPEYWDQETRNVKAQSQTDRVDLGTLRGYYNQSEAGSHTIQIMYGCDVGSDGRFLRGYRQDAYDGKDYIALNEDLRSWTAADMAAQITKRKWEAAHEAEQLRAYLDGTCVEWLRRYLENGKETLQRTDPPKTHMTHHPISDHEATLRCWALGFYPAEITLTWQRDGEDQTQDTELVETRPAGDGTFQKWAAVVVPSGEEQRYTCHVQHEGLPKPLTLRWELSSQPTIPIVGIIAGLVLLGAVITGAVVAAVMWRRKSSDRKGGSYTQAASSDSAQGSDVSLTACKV

SMILES	IC50 (HLA A*3201)	IC50 (HLA A*3001)	IC50 (HLA B*1501)	IC50 (HLA B*1503)
CC(C)[C@H](NC(=O)[C@H](Cc1ccccc1)NC(=O)[C@@H](NC(=O)[C@H](Cc1c[nH]cn1)NC(=O)[C@H](CCC(=O)O)NC(=O)[C@H](CCCNC(=N)N)NC(=O)[C@@H](NC(=O)[C@@H](N)CCCCN)C(C)C)[C@@H](C)O)C(=O)N[C@@H](CCCCN)C(=O)O [3102.0071] (H-KVREHTFVK-OH)	149 nM	2.1 nM	–	–
CC[C@H](C)[C@H](N)C(=O)N[C@H](C(=O)N[C@@H](Cc1ccc(O)cc1)C(=O)N[C@@H](CO)C(=O)N[C@@H](CC(C)C)C(=O)N[C@H](C(=O)N[C@H](C(=O)N[C@H](C(=O)N[C@H](C(=O)O)[C@@H](C)CC)[C@@H](C)O)[C@@H](C)O)C(C)C)C(C)C [3102.0292] (H-IVYSLVTTI-OH)	3.6 nM	16 nM	–	–
CC[C@H](C)[C@H](NC(=O)[C@@H](NC(=O)[C@@H](N)CCCCN)[C@@H](C)O)C(=O)N[C@@H](Cc1ccc(O)cc1)C(=O)N[C@@H](C)C(=O)N[C@H](C(=O)N[C@@H](CC(=O)O)C(=O)N[C@@H](CO)C(=O)N[C@@H](Cc1ccccc1)C(=O)O)C(C)C [3102.0340] (H-KTIYAVDSF-OH)	6.8 nM	–	4 nM	–
CC[C@H](C)[C@H](NC(=O)[C@@H](NC(=O)[C@@H](N)CC(C)C)[C@@H](C)O)C(=O)N[C@@H](C)C(=O)N[C@@H](CS)C(=O)N[C@@H](CCCNC(=N)N)C(=O)N[C@H](C(=O)N[C@@H](CO)C(=O)N[C@@H](CC(C)C)C(=O)O)C(C)C [3102.0376] (H-LTIACRVSL-OH)	96 nM	–	76 nM	–
CC[C@H](C)[C@H](NC(=O)[C@H](CC(C)C)NC(=O)[C@H](CC(C)C)NC(=O)[C@H](Cc1ccccc1)NC(=O)[C@H](Cc1c[nH]cn1)NC(=O)[C@H](C)NC(=O)[C@H](CO)NC(=O)[C@@H](N)CCCCN)C(=O)N[C@@H](Cc1ccccc1)C(=O)O [3102.0491] (H-KSAHFLLIF-OH)	0.19 nM	–	–	–
CC[C@H](C)[C@H](NC(=O)[C@H](CO)NC(=O)[C@@H](NC(=O)CNC(=O)[C@H](Cc1ccccc1)NC(=O)[C@H](CO)NC(=O)[C@H](CC(N)=O)NC(=O)[C@H](CC(C)C)NC(=O)[C@@H](N)CCCCN)C(C)C)C(=O)O [3102.0496] (H-KLNSFGVSI-OH)	0.55 nM	–	–	–
CC[C@H](C)[C@H](NC(=O)[C@H](CCSC)NC(=O)[C@@H](NC(=O)[C@H](CO)NC(=O)[C@H](CO)NC(=O)[C@H](Cc1ccc(O)cc1)NC(=O)[C@H](CO)NC(=O)[C@H](CCSC)NC(=O)[C@@H](N)CCCCN)C(C)C)C(=O)O [3102.0497] (H-KMSYSSVMI-OH)	14 nM	–	–	–
CSCC[C@H](NC(=O)[C@@H](N)Cc1c[nH]cn1)C(=O)N[C@@H](CC(C)C)C(=O)N[C@@H](CCC(=O)O)C(=O)N[C@@H](Cc1ccccc1)C(=O)N[C@@H](CC(C)C)C(=O)N[C@@H](Cc1ccc(O)cc1)C(=O)N[C@@H](CO)C(=O)N[C@@H](Cc1ccccc1)C(=O)O [3102.0499] (H-HMLEFLYSF-OH)	0.3 nM	–	–	–
CC[C@H](C)[C@H](NC(=O)[C@@H](NC(=O)[C@H](Cc1ccc(O)cc1)NC(=O)[C@H](CC(C)C)NC(=O)[C@@H](N)CCCCN)[C@@H](C)O)C(=O)N[C@H](C(=O)N[C@@H](CO)C(=O)N[C@H](C(=O)N[C@@H](CC(C)C)C(=O)O)[C@@H](C)O)C(C)C [3102.0508] (H-KLYTIVSTL-OH)	7.1 nM	–	–	–
CC[C@H](C)[C@H](NC(=O)[C@H](C)NC(=O)[C@H](CCC(N)=O)NC(=O)[C@H](Cc1ccccc1)NC(=O)[C@H](C)NC(=O)[C@H](Cc1ccccc1)NC(=O)[C@H](CO)NC(=O)[C@@H](NC(=O)[C@@H](N)CCCNC(=N)N)[C@@H](C)O)C(=O)O [3102.0512] (H-RTSFAFQAI-OH)	3.8 nM	–	–	–
CC(C)C[C@H](N)C(=O)N[C@H](C(=O)NCC(=O)N[C@H](C(=O)N[C@@H](Cc1ccccc1)C(=O)N[C@H](C(=O)N[C@H](C(=O)N[C@@H](C)C(=O)N[C@@H](Cc1ccccc1)C(=O)O)[C@@H](C)O)C(C)C)[C@@H](C)O)[C@@H](C)O [3102.0515] (H-LTGTFVTAF-OH)	8.8 nM	–	–	–
CSCC[C@H](NC(=O)[C@@H](N)C(C)C)C(=O)N[C@@H](Cc1ccc(O)cc1)C(=O)N[C@@H](C)C(=O)N[C@@H](Cc1ccccc1)C(=O)N[C@H](C(=O)N[C@H](C(=O)N1CCC[C@H]1C(=O)N[C@@H](CC(C)C)C(=O)O)[C@@H](C)O)[C@@H](C)O [3102.0516] (H-VMYAFTTPL-OH)	0.29 nM	–	–	–
CC[C@H](C)[C@H](NC(=O)[C@H](CC(N)=O)NC(=O)[C@H](CCSC)NC(=O)[C@@H](NC(=O)[C@@H](N)CCSC)[C@@H](C)O)C(=O)N[C@H](C(=O)N[C@@H](CC(N)=O)C(=O)N[C@@H](Cc1ccccc1)C(=O)N[C@@H](Cc1ccccc1)C(=O)O)C(C)C [3102.0518] (H-MTMNIVNFF-OH)	1.9 nM	–	–	–
CC(C)[C@H](NC(=O)[C@H](Cc1ccc(O)cc1)NC(=O)[C@@H](NC(=O)[C@@H](N)CCCNC(=N)N)C(C)C)C(=O)NCC(=O)N[C@@H](CC(N)=O)C(=O)N[C@H](C(=O)N[C@@H](C)C(=O)N[C@@H](Cc1c[nH]c2ccccc12)C(=O)O)C(C)C [3102.0520] (H-RVYVGNVAW-OH)	1.1 nM	–	–	–
CC[C@H](C)[C@H](NC(=O)[C@H](CCCCN)NC(=O)[C@H](CC(C)C)NC(=O)[C@@H](NC(=O)[C@H](Cc1ccc(O)cc1)NC(=O)[C@H](CC(N)=O)NC(=O)[C@H](CC(N)=O)NC(=O)[C@H](CC(C)C)NC(=O)[C@@H](N)CC(C)C)[C@@H](C)O)C(=O)O [3102.0521] (H-LLNNYTLKI-OH)	25 nM	–	–	–
CC[C@H](C)[C@H](NC(=O)[C@H](CCCCN)NC(=O)[C@H](Cc1ccc(O)cc1)NC(=O)[C@H](Cc1ccccc1)NC(=O)[C@H](CCSC)NC(=O)[C@H](Cc1ccc(O)cc1)NC(=O)[C@H](CCC(N)=O)NC(=O)[C@@H](N)CCCNC(=N)N)C(=O)N[C@@H](Cc1ccccc1)C(=O)O [3102.1055] (H-RQYMFYKIF-OH)	19 nM	–	–	0.07 nM
CC[C@H](C)[C@H](NC(=O)[C@H](C)NC(=O)[C@H](Cc1ccccc1)NC(=O)[C@H](CCC(N)=O)NC(=O)[C@@H](N)Cc1c[nH]c2ccccc12)C(=O)N[C@@H](Cc1c[nH]cn1)C(=O)N[C@@H](Cc1ccc(O)cc1)C(=O)N[C@@H](CO)C(=O)N[C@@H](Cc1ccccc1)C(=O)O [3102.1096] (H-WQFAIHYSF-OH)	2.8 nM	–	–	4.5 nM
CC[C@H](C)[C@H](N)C(=O)N[C@@H](CC(C)C)C(=O)N[C@@H](Cc1ccccc1)C(=O)N[C@@H](Cc1ccc(O)cc1)C(=O)N[C@@H](Cc1ccccc1)C(=O)N[C@@H](C)C(=O)N[C@@H](CC(N)=O)C(=O)NCC(=O)N[C@H](C(=O)O)[C@@H](C)CC [3102.1147] (H-ILFYFANGI-OH)	93 nM	–	–	–
CC[C@H](C)[C@H](N)C(=O)N[C@@H](CCSC)C(=O)N[C@@H](Cc1ccccc1)C(=O)N[C@@H](C)C(=O)N[C@@H](CCCCN)C(=O)N[C@H](C(=O)N[C@@H](CC(C)C)C(=O)N[C@@H](CC(=O)O)C(=O)N[C@@H](Cc1ccccc1)C(=O)O)[C@@H](C)O [3102.1190] (H-IMFAKTLDF-OH)	6.8 nM	–	–	0.31 nM
CC[C@H](C)[C@H](NC(=O)[C@H](Cc1ccc(O)cc1)NC(=O)[C@H](Cc1c[nH]c2ccccc12)NC(=O)[C@H](CCSC)NC(=O)[C@@H](N)CO)C(=O)N1CCC[C@H]1C(=O)N[C@@H](CC(N)=O)C(=O)N[C@H](C(=O)N[C@@H](Cc1ccccc1)C(=O)O)C(C)C [3102.1192] (H-SMWYIPNVF-OH)	5.1 nM	–	–	0.72 nM
CC[C@H](C)[C@H](N)C(=O)N[C@@H](CCSC)C(=O)N[C@@H](Cc1ccccc1)C(=O)N[C@@H](CO)C(=O)N[C@@H](CCCCN)C(=O)N[C@@H](CO)C(=O)N[C@@H](CC(C)C)C(=O)N[C@@H](CC(N)=O)C(=O)N[C@@H](Cc1ccccc1)C(=O)O [3102.1204] (H-IMFSKSLNF-OH)	15 nM	–	–	0.23 nM
CC(C)C[C@H](NC(=O)[C@@H](NC(=O)[C@H](CC(N)=O)NC(=O)[C@H](C)NC(=O)[C@H](CC(N)=O)NC(=O)[C@H](Cc1ccc(O)cc1)NC(=O)[C@H](Cc1ccccc1)NC(=O)[C@H](CCC(N)=O)NC(=O)[C@@H](N)CCCNC(=N)N)C(C)C)C(=O)O [3102.1205] (H-RQFYNANVL-OH)	37 nM	–	–	0.24 nM
CC[C@H](C)[C@H](NC(=O)[C@@H](NC(=O)[C@@H]1CCCN1C(=O)[C@H](CC(C)C)NC(=O)[C@H](Cc1ccccc1)NC(=O)[C@H](CO)NC(=O)[C@H](CCSC)NC(=O)[C@@H](N)CCCCN)[C@@H](C)CC)C(=O)N[C@@H](Cc1ccccc1)C(=O)O [3102.1291] (H-KMSFLPIIF-OH)	6.7 nM	–	–	0.08 nM
CC[C@H](C)[C@H](N)C(=O)N[C@@H](CC(C)C)C(=O)N[C@@H](CCSC)C(=O)N[C@H](C(=O)N[C@@H](Cc1ccccc1)C(=O)N[C@H](C(=O)N[C@@H](CO)C(=O)N[C@@H](CO)C(=O)N[C@@H](Cc1ccccc1)C(=O)O)[C@@H](C)CC)[C@@H](C)CC [3102.1302] (H-ILMIFISSF-OH)	87 nM	–	–	12 nM
CC[C@H](C)[C@H](N)C(=O)N[C@H](C(=O)N[C@@H](Cc1ccccc1)C(=O)N[C@@H](CCSC)C(=O)N[C@@H](CC(N)=O)C(=O)N[C@@H](CC(C)C)C(=O)N[C@@H](Cc1ccc(O)cc1)C(=O)N[C@@H](CO)C(=O)N[C@@H](Cc1ccccc1)C(=O)O)[C@@H](C)CC [3102.1328] (H-IIFMNLYSF-OH)	1.3 nM	–	–	11 nM
CSCC[C@H](NC(=O)[C@H](Cc1ccc(O)cc1)NC(=O)[C@H](CC(C)C)NC(=O)[C@@H](N)CC(C)C)C(=O)N[C@@H](Cc1ccccc1)C(=O)N1CCC[C@H]1C(=O)N[C@@H](CC(N)=O)C(=O)N[C@@H](CC(C)C)C(=O)N[C@@H](Cc1ccccc1)C(=O)O [3102.1335] (H-LLYMFPNLF-OH)	90 nM	–	–	0.11 nM

Source: paper PMC2248166, “Quantitative peptide binding motifs for 19 human and mouse MHC class I molecules derived using positional scanning combinatorial peptide libraries” (Immunome Research, 2008)
